A value given as a limit tells only on which side of the number the result lay.

In this assay the target is T1, Bovine thymus 1α,25-dihydroxy vitamin D3 receptor (Bos taurus, UniProt Q28037).
T1 construct: Bovine thymus 1α,25-dihydroxy vitamin D3 receptor was purchased from YAMASA BIOCHEMICAL; purchased YAMASA BIOCHEMICAL (Choshi, Chiba, Japan); host or cells: bovine thymus (tissue preparation)
T1 sequence (Q28037 1-426): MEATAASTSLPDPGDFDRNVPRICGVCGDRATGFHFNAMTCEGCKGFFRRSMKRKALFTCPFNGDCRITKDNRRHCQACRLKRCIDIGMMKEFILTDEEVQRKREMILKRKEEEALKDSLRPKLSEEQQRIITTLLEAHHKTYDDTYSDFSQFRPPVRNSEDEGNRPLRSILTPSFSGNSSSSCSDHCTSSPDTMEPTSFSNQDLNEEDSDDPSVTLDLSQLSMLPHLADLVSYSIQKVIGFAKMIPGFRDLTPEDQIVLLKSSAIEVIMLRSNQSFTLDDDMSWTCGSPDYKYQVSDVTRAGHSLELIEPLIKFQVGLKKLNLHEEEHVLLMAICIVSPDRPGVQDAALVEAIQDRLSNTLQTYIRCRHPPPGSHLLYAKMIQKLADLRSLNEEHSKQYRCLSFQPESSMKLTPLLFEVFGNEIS
Nature of the assay: Assay for binding to vitamin D receptor (VDR); displacement of [3H]-1α,25-dihydroxy vitamin D3. As to conditions: relative value, with that of 1α,25-dihydroxy vitamin D3 taken as 100; [3H]-1α,25-dihydroxy vitamin D3 at 0.1 nM, overnight at 4°C. How it is done:
Test example 1: Assay for binding to vitamin D receptor (VDR)
Bovine thymus 1α,25-dihydroxy vitamin D3 receptor was purchased from YAMASA BIOCHEMICAL (Choshi, Chiba, Japan) and dissolved in 0.05 M phosphate buffer (pH 7.4) containing 0.3M KCl and 5mM dithiothreitol just before use. Aliquots (500 µl, 0.23 mg protein) of the receptor solution and ethanol solutions (50 µl) of 1α,25-dihydroxy vitamin D3 or derivatives (compounds of the present invention) at various concentrations were combined, and pre-incubated at 25°C for 60 minutes. To the resultant receptor mixtures, [^3H]-1α,25-dihydroxy vitamin D3 was added at 0.1 nM, followed by standing overnight at 4°C. The mixtures were treated with dextran coated charcoal for 30 minutes at 4°C to separate the bound arid free forms of [^3H]-1α,25-dihydroxy vitamin D3, and centrifuged at 3000 rpm for ten minutes. Each of the resultant supernatants (500 µl) was mixed with ACS-II (9.5 ml) (AMERSHAM, England) for radioactivity measurement.
The binding property of the compounds of the present invention was expressed in relative values, with that of 1α,25-dihydroxy vitamin D3 taken as 100. (Table 1)
Background: Displacement assays read how much labelled ligand stays bound in the presence of the test substance.
As to `C=C1/C(=C\C=C2/CCC[C@]3(C)[C@@H]([C@H](C)CCCC(C)(C)O)CC[C@@H]23)C[C@@](C)(O)C[C@H]1O` [3-Me-(1β,3β)-dihydroxy vitamin D3, 3-methyl-1β,3β-dihydroxy vitamin D3], the Binding property is less than 0.1.

In turn, `C=C1/C(=C\C=C2/CCC[C@]3(C)[C@@H]([C@H](C)CCCC(C)(C)O)CC[C@@H]23)C[C@](C)(O)C[C@@H]1O` [3-Me-(1α,3α)-dihydroxy vitamin D3] yielded a Binding property of less than 0.1.

`C=C1/C(=C\C=C2/CCC[C@]3(C)[C@@H]([C@H](C)CCCC(C)(C)O)CC[C@@H]23)C[C@](C)(O)C[C@H]1O` [3-Me-(1β,3α)-dihydroxy vitamin D3, 3-methyl-1β,3α-dihydroxy vitamin D3] registered a Binding property of less than 0.1.

For the molecule `C=C1/C(=C\C=C2/CCC[C@]3(C)[C@@H]([C@H](C)CCCC(C)(C)O)CC[C@@H]23)C[C@@](C)(O)C[C@@H]1O` [3-Me-(1α,3β)-dihydroxy vitamin D3], the Binding property was 18.
